Read-outs that look alike come from different tables or passages of the source.
What was measured:
Format in all cases: in vivo
mosquito larvae = tested on: mosquito larvae
Method: In this example, concentration titration was performed to determine effective concentrations of nootkatone in nootkatone-containing protective compositions that maintain larvicidal activity, and to determine the effect of surface area on larvicidal activity of nootkatone-containing compositions.
One milliliter of a solution of nootkatone in ethanol was applied directly to 200 milliliters of water containing larvae, using a micropipette. One treatment condition used 3% (v/v) nootkatone in ethanol, a second treatment condition used 1% (v/v) nootkatone in ethanol, and a third treatment used 0.5% (v/v) nootkatone in ethanol, for final concentrations of 30, 10, or 5 mg of nootkatone added per container. One milliliter of pure ethanol was used as a control. Three replicates of 25 larvae were tested per treatment in small- (250 mL flasks (23.8 cm^2 surface area) and medium-sized (600 mL beakers (54 cm^2 surface area)) containers, but only two replicates were made in large 1000 mL beakers (86.6 cm^2 surface area).
Containers were lightly covered with paper towels. Indicated surface areas were calculated based on the inside diameter of the container at the surface level when 200 mL water was added to the container.
Larvae were observed after 24 hours post-introduction to the test containers.
Readings were discontinued if treated mortality reached 100%, or control mortality exceeded 20%.

Aedes aegypti eggs = assay: Prevention of mosquito egg hatching (Example No. 5); settings: 0.03% nootkatone/1% ethanol, 24 hours
Method: Mosquito eggs from Aedes aegypti and Anopheles quadrimaculatus mosquitoes were obtained from a commercial source.
In a second experiment, Aedes aegypti eggs were divided into cohorts of ˜100 eggs. Each cohort was placed inside a clean 9 cm Petri dish after receiving mock treatment or a true treatment with nootkatone (see “Treatments”), after which the Petri dish was covered with its lid and held at 30-35° C. to allow hatching. Hatching was scored as the number of live larvae after 24 hours. Four cohorts were tested per treatment.
An aliquot of 0.2 mL of a 3% solution (w/v) of nootkatone in 100% ethanol was added to 20 mL of sterile MilliQ water in treatment Petri dishes to obtain a final concentration of 0.03% nootkatone/1% ethanol. Control beakers received 0.2 mL of 100% ethanol, to obtain a final concentration of 1% ethanol.
The rate of egg hatching was calculated for each treatment and control egg cohort, and the results of at least 4 cohorts were averaged, and used to calculate the relative hatch rate for treatments versus controls (see FIG. 11). […] Therefore, nootkatone treatment of mosquito breeding sites will effectively reduce mosquito populations by preventing hatching and killing hatched larvae.

Aedes aegypti pupae [1] = assay: Efficacy against mosquito pupae (Example No. 6); settings: for pupae died within 24 hours: 0.03% nootkatone/1% ethanol
Method: Eggs of Aedes aegypti were purchased from a commercial supplier. Eggs were hatched in sterile MilliQ water and fed with finely ground Tetramin® fish food until they developed into pupae.
Clean, glass 600 mL beakers were washed and thoroughly rinsed prior to use as test containers. On testing days, pupae were removed from dishes used to grow larvae. Replicates of 10 pupae each were randomly assigned to glass beakers in a volume of 100 mL of sterile MilliQ water, and a treatment of nootkatone (see “Treatments” below), or a control treatment of ethanol alone, was added. Three control replicates and 4 treated replicates were tested on one day, and on a second day, two control replicates and four treated replicates were tested. The beakers were then covered lightly with Kimwipes, secured by rubber bands to prevent escape of adults. The beakers were observed after 24 hours, and the numbers of live pupae, dead pupae, live adults, and dead adults were recorded.
An aliquot of 1 mL of a 3% solution (w/v) of nootkatone in 100% ethanol was added to treatment beakers to obtain a final concentration of 0.03% nootkatone/1% ethanol. Control beakers received 1 mL of 100% ethanol, to obtain a final concentration of 1% ethanol.

Aedes aegypti pupae [2] = assay: Prevention of adult emergence (eclosion) from pupae (Example No. 7); settings: for Dead adults, total number / Dead pupae, total number / live adults, total number / live pupae, total number: 0.015% NK/0.5% EtOH in water
Method: Eggs of Aedes aegypti were purchased from a commercial supplier. They were hatched in sterile MilliQ water and fed with finely ground Tetramin® fish food until they developed into pupae.
Clean, glass 600 mL beakers were washed and thoroughly rinsed prior to use as test containers. On each of four testing days, pupae were removed from dishes used to grow larvae. Replicates of 10 pupae each were randomly assigned to glass beakers in a volume of 100 mL of sterile MilliQ water, and a treatment of nootkatone (see “Treatments” below), or a control treatment of ethanol alone, was added. The beakers were then covered lightly with Kimwipes, secured by rubber bands to prevent escape of adults. […]
An aliquot of 0.5 mL of a 3% solution (w/v) of nootkatone in 100% ethanol was added to treatment beakers to obtain a final concentration of 0.015% nootkatone/0.5% ethanol. Control beakers received 0.5 mL of 100% ethanol, to obtain a final concentration of 0.5% ethanol.

[3] = 0.015% nootkatone/0.5% ethanol, after 48 hours, of 150 pupae

## C=C(C)[C@@H]1CCC2=CC(=O)C[C@@H](C)[C@]2(C)C1 [Nootkatone, nootkatone]
Mosquito larvae; 5 mg nootkatone in 200 mL water, 250 mL flasks, 23.8 cm^2, 24 hours
  larval mortality: 68%
Mosquito larvae; 5 mg nootkatone in 200 mL water, largest containers, 86.6 cm^2, 24 hours
  larvae killed: did not kill
Mosquito larvae; 5 mg nootkatone in 200 mL water, medium sized containers, 54 cm^2, 24 hours
  larval mortality: 16%
Mosquito larvae; 10 mg nootkatone in 200 mL water, flasks with smallest surface area 23.8 cm^2 (about 0.42 mg/cm^2)
  larvae killed in 24 hours: killed all larvae
Mosquito larvae; 30 mg nootkatone in 200 mL water, any container size (23.8, 54, 86.6 cm^2)
  larvae killed in 24 hours: kill all larvae
Mosquito larvae; 24 hours, water surface
  surface concentration at which nootkatone exhibits larvicidal properties: at least 0.09 mg/cm^2
Aedes aegypti eggs
  reduction in egg hatching versus the controls: 37%
  state of hatched larvae in treated dishes: all larvae in the treated dishes were dead
Aedes aegypti eggs; cohorts of ~100 eggs, four dishes, controls 13.5, FIG. 11
  average number of hatched larvae per Petri dish: 8.5 larvae
Aedes aegypti pupae [1]; 0.03% nootkatone/1% ethanol in water, average of two test days, controls 3%, FIG. 12
  pupae died within 24 hours, average: 94%
Aedes aegypti pupae [1]; one experiment
  pupae died within 24 hours: 93%
Aedes aegypti pupae [1]; second day of testing
  pupae died within 24 hours: 95%
Aedes aegypti pupae [2]; 2 DAT (48 hours), of 150 pupae
  Dead adults, total number: 47
  Dead pupae, total number: 103
  live adults, total number: 0
  live pupae, total number: 0
Aedes aegypti pupae [2]; 24 hr, of 150 pupae
  Dead adults, total number: 31
  Dead pupae, total number: 31
  live adults, total number: 0
  live pupae, total number: 88
Aedes aegypti pupae [2]; 0.015% nootkatone/0.5% ethanol (v/v) in water, after 48 hours
  survivors: no survivors
Aedes aegypti pupae [2]; [3]
  share of pupae that died as pupae: 68.7%
  share of pupae that metamorphosed but died during eclosing: 31.3%
